Data from ChEMBL document CHEMBL1806426, “Simple but powerful: phenanthroline-based small molecules for cellular imaging and cancer screening” (Bioorg Med Chem Lett, 2011).

Experiments:
[1] = Drug uptake in human HET-1A endoplasmic reticulum after 20 mins to 2 hrs by confocal microscopy; format: ADME
[2] = Drug uptake in human OE21 endoplasmic reticulum at 27 uM after 20 mins by confocal microscopy; format: ADME
[3] = Solubility of the compound in phosphate buffer solution at pH7.4; format: physicochemical; details: pH 7.4
[4] = Cytotoxicity against human HET-1A cells assessed as cell survival after 24 hrs by MTT assay; format: cell-based
[5] = Ratio of IC50 for cytotoxicity against human HET-1A cells to IC50 for cytotoxicity against human OE21 cells; format: toxicity, cell-based; details: HET-1A cells and OE21 cells, read-out: Ratio IC50
[6] = Drug uptake in human OE21 endoplasmic reticulum at 9 uM after 5 mins by confocal microscopy; format: ADME
[7] = Cytotoxicity against human OE21 cells assessed as cell survival after 24 hrs by MTT assay; format: functional, cell-based; details: OE21, 24 h
[8] = Drug uptake in human OE21 endoplasmic reticulum assessed as fluorescence intensity at 18 uM after 20 mins to 2 hrs by confocal microscopy; format: ADME
[9] = Drug uptake in human HET-1A endoplasmic reticulum after 5 mins by confocal microscopy; format: ADME

Drug uptake [1] | Drug uptake [2] | solubility [3] | Drug uptake [6] | Drug uptake [8] | Drug uptake [9] | Structure (SMILES) | IC50 [4] [nM] | selectivity ratio [5] | IC50 [7] [nM]
Active | Active | soluble | Active | Active | – | Brc1ccc(-c2nc3c4cccnc4c4ncccc4c3[nH]2)cc1 | 3150 | 4 | 770
Active | Active | soluble | Active | Active | Active | C[Si](C)(C)C#Cc1ccc(-c2nc3c4cccnc4c4ncccc4c3[nH]2)cc1 | 3020 | 7 | 440
